Laboratory results from US20030013660A1, “Dioxolane analogs for improved inter-cellular delivery” (Shire BioChem Inc., priority 2000, published 2003).

What was measured:
Experiment in all cases: 3H-TdR incorporation at 72 hr (24 hr drug exposure, wash, 48 hr)
MCF-7 = assay type: cell-based, Human; settings: Homo sapiens, MCF7, read-out: IC50 in μM (3H-TdR incorporation at 72 hr) MCF-7 24 h, MCF-7 Human Breast Carcinoma, 72 hr assay
Experimental: (§1) Exposition of 24 hr to drug, wash, incubated for another 48 hr (total of 72 hr assay)
(§2) (3H-Thymidine Incorporation Assay)

H-460 = assay type: cell-based, Human; settings: Homo sapiens, NCI-H460, read-out: IC50 in μM (3H-TdR incorporation at 72 hr) H-460 24 h, H-460 Human Lung Carcinoma, 72 hr assay
Experimental: as §1, §2

SF-268 = assay type: cell-based, Human; settings: Homo sapiens, SF-268, read-out: IC50 in μM (3H-TdR incorporation at 72 hr) SF-268 24 h, SF-268 Human Central Nervous System Tumor; 24 h drug exposure, 72 hr assay
Experimental: as §1, §2

CCRF-CEM = assay type: cell-based; settings: Homo sapiens, CCRF-CEM, read-out: IC50 in μM (3H-TdR incorporation at 72 hr) CCRF-CEM 24 h, CCRF-CEM T-cell Leukemia, 72 hr assay
Experimental: as §1, §2

CEM/dCK- = assay type: cell-based; settings: for IC50: Homo sapiens, CCRF-CEM, read-out: IC50 in μM (3H-TdR incorporation at 72 hr) CEM/dCK- 24 h, CCRF-CEM deoxycytidine kinase-deficient, 24 h drug exposure, 72 hr assay; for Factor* (Resistance Factor = Ratio of dCK- on Wild-type CCRF-CEM): ratio of IC50 CEM/dCK- to IC50 CCRF-CEM
Experimental: as §1, §2

| SMILES | IC50 (MCF-7) [µM] | IC50 (H-460) [µM] | IC50 (SF-268) [µM] | IC50 (CCRF-CEM) [µM] | IC50 (CEM/dCK-) [µM] | Factor* (Resistance Factor = Ratio of dCK- on Wild-type CCRF-CEM) (CEM/dCK-) |
| --- | --- | --- | --- | --- | --- | --- |
| COc1ccc(C(=O)Nc2ccn([C@@H]3CO[C@H](COC(=O)c4ccc(OC)cc4)O3)c(=O)n2)cc1 [Compound 174, 4-METHOXY-BENZOIC ACID 4-[4-(4-METHOXY- BENZOYLAMINO)-2-OXO-2H- PYRIMIDIN-1-YL]- [1,3]DIOXOLAN-2- YLMETHYL ESTER] | 21 | 11 | 38 | 9 | > 100 | >11 |
| Nc1ccn([C@@H]2CO[C@H](COC(=O)N(c3ccccc3)c3ccccc3)O2)c(=O)n1 [Compound 246, DIPHENYL-CARBAMIC ACID 4-(4-AMINO-2-OXO-2H- PYRIMIDIN-1-YL)- [1,3]DIOXOLAN-2-YL METHYL ESTER] | 1.4 | 47 | 28 | 25 | > 100 | >4 |
| O=c1nc(/N=C2/CCCN2Cc2ccccc2)ccn1[C@@H]1CO[C@H](CO)O1 (stereo in doubt) [Compound 236, 4-(1-BENZYL-PYRROLIDIN- 2-YLIDENEAMINO)-1-(2- HYDROXYMETHYL- [1,3]DIOXOLAN-4-YL)-1H- PYRIMIDIN-2-ONE] | 8.6 | 3.7 | 0.12 | 5.1 | > 100 | >20 |
| C/C(=N\c1ccn([C@@H]2CO[C@H](CO)O2)c(=O)n1)N(C)C [Compound 228, N′-[1-(2-HYDROXYMETHYL- [1,3]DIOXOLAN-4-YL)-2- OXO-1,2-DIHYDRO- PYRIMIDIN-4-YL]-N,N- DIMETHYL-ACETAMIDINE] | 1.5 | 0.68 | 5.3 | 0.44 | > 100 | >227 |
| CC(C)N(/C=N/c1ccn([C@@H]2CO[C@H](CO)O2)c(=O)n1)C(C)C [Compound 230, N′-[1-(2-HYDROXYMETHYL- [1,3]DIOXOLAN-4-YL)-2- OXO-1,2-DIHYDRO- PYRIMIDIN-4-YL]-N,N- DIISOPROPYL-FORMAMIDINE] | 3.8 | 1.5 | 9.5 | 1 | > 100 | >100 |
| CC(C)C(C(=O)Nc1ccn([C@@H]2CO[C@H](CO)O2)c(=O)n1)c1ccccc1 (stereo partly drawn) [Compound 249, #N!-[1-(2- HYDROXYMETHYL- [1,3]DIOXOLAN-4-YL)-2- OXO-1,2-DIHYDRO- PYRIMIDIN-4-YL]-3- METHYL-2-PHENYL- BUTYRAMIDE] | 0.78 | 8.6 | 8.4 | 3.9 | > 100 | >25 |
| CC(C)(CCCCCCc1ccccc1)C(=O)OC[C@H]1OC[C@@H](n2ccc(N)nc2=O)O1 [Compound 238, 2,2-DIMETHYL-8-PHENYL- OCTANOIC ACID 4-(4- AMINO-2-OXO-2H- PYRIMIDIN-1-YL)- [1,3]DIOXOLAN-2-YL METHYL ESTER] | ≤ 0.0001 | 0.00045 | 0.025 | 0.0025 | 59 | 23,600 |
| CCOC(OCC)(OCC)OC[C@H]1OC[C@@H](n2ccc(N)nc2=O)O1 [Compound 199, 4-Amino-1-(2-triethoxymethoxymethyl-[1,3]dioxolan-4-yl)-1H-pyrimidin-2-one] | 0.21 | 0.033 | 0.0078 | 0.0094 | > 100 | >10638 |
| C#CCN(CC#C)c1ccn([C@@H]2CO[C@H](CO)O2)c(=O)n1 [Compound 171, (S,S) 4-(DI-PROP-2′- YNYL-AMINO)-1-(2″- HYDROXYMETHYL- [1,3]DIOXOLAN-4″-YL)- 1H-PYRIMIDIN-2-ONE] | 41 | 45 | 82 | 38 | > 100 | >2.6 |
| COc1ccc(C(=O)Nc2ccn([C@@H]3CO[C@H](CO)O3)c(=O)n2)cc1 [Compound 175, N-[1-(2-HYDROXYMETHYL- [1,3]DIOXOLAN-4-YL)-2- OXO-1,2-DIHYDRO- PYRIMIDIN-4-YL]-4- METHOXY-BENZAMIDE] | 3.1 | 6.3 | 32 | 3.5 | > 100 | >29 |
